Reference: PubChem BioAssay (NCI)
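1) Cells in 96-well plates. 2) Compound, 48 h, 5 concentrations. 3) Linear interpolation between surrounding doses. 4) Unreached endpoint = highest concentration. Definition used: TGI = concentration required for complete inhibition of growth.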

What was measured:
Assay in all cases: inhibition of tumour cell growth, NCI panel, 48 h
786-0 renal = test system: 786-0 renal
A498 renal = test system: A498 renal
A549 NSCLC = test system: A549 NSCLC
ACHN renal = test system: ACHN renal
BT-549 breast = test system: BT-549 breast
CAKI-1 renal = test system: CAKI-1 renal
CCRF-CEM leukemia = test system: CCRF-CEM leukemia
COLO 205 colon = test system: COLO 205 colon
DU-145 prostate = test system: DU-145 prostate
EKVX NSCLC = test system: EKVX NSCLC
HCC-2998 colon = test system: HCC-2998 colon
HCT-116 colon = test system: HCT-116 colon
HCT-15 colon = test system: HCT-15 colon
HL-60(TB) leukemia = test system: HL-60(TB) leukemia
HOP-62 NSCLC = test system: HOP-62 NSCLC
HOP-92 NSCLC = test system: HOP-92 NSCLC
HS 578T breast = test system: HS 578T breast
HT29 colon = test system: HT29 colon
IGROV1 ovarian = test system: IGROV1 ovarian
K-562 leukemia = test system: K-562 leukemia
KM12 colon = test system: KM12 colon
LOX IMVI melanoma = test system: LOX IMVI melanoma
M14 melanoma = test system: M14 melanoma
MALME-3M melanoma = test system: MALME-3M melanoma
MCF7 breast = test system: MCF7 breast
MDA-MB-231 breast = test system: MDA-MB-231 breast
MDA-MB-435 = test system: MDA-MB-435
MDA-N = test system: MDA-N
MOLT-4 leukemia = test system: MOLT-4 leukemia
NCI-H226 lung = test system: NCI-H226 lung
NCI-H23 lung = test system: NCI-H23 lung
NCI-H460 lung = test system: NCI-H460 lung
NCI-H522 lung = test system: NCI-H522 lung
NCI/ADR-RES ovarian = test system: NCI/ADR-RES ovarian
OVCAR-3 ovarian = test system: OVCAR-3 ovarian
OVCAR-4 ovarian = test system: OVCAR-4 ovarian
OVCAR-5 ovarian = test system: OVCAR-5 ovarian
OVCAR-8 ovarian = test system: OVCAR-8 ovarian
PC-3 prostate = test system: PC-3 prostate
RPMI-8226 leukemia = test system: RPMI-8226 leukemia
RXF 393 renal = test system: RXF 393 renal
SF-268 CNS = test system: SF-268 CNS
SF-295 CNS = test system: SF-295 CNS
SF-539 CNS = test system: SF-539 CNS
SK-MEL-2 melanoma = test system: SK-MEL-2 melanoma
SK-MEL-28 melanoma = test system: SK-MEL-28 melanoma
SK-MEL-5 melanoma = test system: SK-MEL-5 melanoma
SK-OV-3 ovarian = test system: SK-OV-3 ovarian
SN12C renal = test system: SN12C renal
SNB-19 CNS = test system: SNB-19 CNS
SNB-75 CNS = test system: SNB-75 CNS
SR leukemia = test system: SR leukemia
SW-620 colon = test system: SW-620 colon
T-47D breast = test system: T-47D breast
TK-10 renal = test system: TK-10 renal
U251 CNS = test system: U251 CNS
UACC-257 melanoma = test system: UACC-257 melanoma
UACC-62 melanoma = test system: UACC-62 melanoma
UO-31 renal = test system: UO-31 renal

COc1cc(/C=C/C(=N\NC(=S)NN)c2sc(NNC(C)=O)nc2C)ccc1O
TGI (786-0 renal): > 100 µM | TGI (A498 renal): > 100 µM | TGI (A549 NSCLC): > 100 µM | TGI (ACHN renal): > 100 µM | TGI (BT-549 breast): > 100 µM | TGI (CAKI-1 renal): > 100 µM | TGI (CCRF-CEM leukemia): > 100 µM | TGI (COLO 205 colon): > 100 µM | TGI (DU-145 prostate): > 100 µM | TGI (EKVX NSCLC): > 100 µM | TGI (HCC-2998 colon): > 100 µM | TGI (HCT-116 colon): > 100 µM | TGI (HCT-15 colon): > 100 µM | TGI (HL-60(TB) leukemia): > 100 µM | TGI (HOP-62 NSCLC): > 100 µM | TGI (HOP-92 NSCLC): > 100 µM | TGI (HS 578T breast): > 100 µM | TGI (HT29 colon): > 100 µM | TGI (IGROV1 ovarian): > 100 µM | TGI (K-562 leukemia): > 100 µM | TGI (KM12 colon): > 100 µM | TGI (LOX IMVI melanoma): > 100 µM | TGI (M14 melanoma): > 100 µM | TGI (MALME-3M melanoma): > 100 µM | TGI (MCF7 breast): > 100 µM | TGI (MDA-MB-231 breast): > 100 µM | TGI (MDA-MB-435): > 100 µM | TGI (MDA-N): > 100 µM | TGI (MOLT-4 leukemia): > 100 µM | TGI (NCI-H226 lung): > 100 µM | TGI (NCI-H23 lung): > 100 µM | TGI (NCI-H460 lung): > 100 µM | TGI (NCI-H522 lung): > 100 µM | TGI (NCI/ADR-RES ovarian): > 100 µM | TGI (OVCAR-3 ovarian): > 100 µM | TGI (OVCAR-4 ovarian): > 100 µM | TGI (OVCAR-5 ovarian): > 100 µM | TGI (OVCAR-8 ovarian): > 100 µM | TGI (PC-3 prostate): > 100 µM | TGI (RPMI-8226 leukemia): > 100 µM | TGI (RXF 393 renal): > 100 µM | TGI (SF-268 CNS): > 100 µM | TGI (SF-295 CNS): > 100 µM | TGI (SF-539 CNS): > 100 µM | TGI (SK-MEL-2 melanoma): > 100 µM | TGI (SK-MEL-28 melanoma): > 100 µM | TGI (SK-MEL-5 melanoma): > 100 µM | TGI (SK-OV-3 ovarian): > 100 µM | TGI (SN12C renal): > 100 µM | TGI (SNB-19 CNS): > 100 µM | TGI (SNB-75 CNS): > 100 µM | TGI (SR leukemia): > 100 µM | TGI (SW-620 colon): > 100 µM | TGI (T-47D breast): > 100 µM | TGI (TK-10 renal): > 100 µM | TGI (U251 CNS): > 100 µM | TGI (UACC-257 melanoma): > 100 µM | TGI (UACC-62 melanoma): > 100 µM | TGI (UO-31 renal): > 100 µM

COc1ccc(N2N=NN(C(C)C)/C2=C(/Cl)c2nnnn2-c2ccc(OC)cc2)cc1
TGI (786-0 renal): 7.06 µM | TGI (A498 renal): 30.5 µM | TGI (A549 NSCLC): 33.6 µM | TGI (ACHN renal): 30.7 µM | TGI (BT-549 breast): 29.7 µM | TGI (CAKI-1 renal): 3.16 µM | TGI (CCRF-CEM leukemia): 4.24 µM | TGI (COLO 205 colon): 13.1 µM | TGI (DU-145 prostate): 22.7 µM | TGI (EKVX NSCLC): 36.1 µM | TGI (HCC-2998 colon): 34.4 µM | TGI (HCT-116 colon): 14.1 µM | TGI (HCT-15 colon): 31.4 µM | TGI (HL-60(TB) leukemia): 5.15 µM | TGI (HOP-62 NSCLC): 37.1 µM | TGI (HOP-92 NSCLC): 6.19 µM | TGI (HS 578T breast): 52.6 µM | TGI (HT29 colon): 24.4 µM | TGI (IGROV1 ovarian): 28.7 µM | TGI (K-562 leukemia): > 32.5 µM | TGI (KM12 colon): 31.3 µM | TGI (LOX IMVI melanoma): 6.82 µM | TGI (M14 melanoma): 21.9 µM | TGI (MALME-3M melanoma): 24.7 µM | TGI (MCF7 breast): 22.6 µM | TGI (MDA-MB-231 breast): 22.6 µM | TGI (MDA-MB-435): 25.5 µM | TGI (MDA-N): 27.4 µM | TGI (MOLT-4 leukemia): 14.8 µM | TGI (NCI-H226 lung): 42.2 µM | TGI (NCI-H23 lung): 33 µM | TGI (NCI-H460 lung): 36.6 µM | TGI (NCI-H522 lung): 5.48 µM | TGI (NCI/ADR-RES ovarian): 61.2 µM | TGI (OVCAR-3 ovarian): 24.5 µM | TGI (OVCAR-4 ovarian): 11.6 µM | TGI (OVCAR-5 ovarian): 26.9 µM | TGI (OVCAR-8 ovarian): 18 µM | TGI (PC-3 prostate): 28.3 µM | TGI (RPMI-8226 leukemia): > 61.2 µM | TGI (RXF 393 renal): 27.4 µM | TGI (SF-268 CNS): 34.6 µM | TGI (SF-295 CNS): 30.4 µM | TGI (SF-539 CNS): 33.5 µM | TGI (SK-MEL-2 melanoma): 29.6 µM | TGI (SK-MEL-28 melanoma): 29.7 µM | TGI (SK-MEL-5 melanoma): 28.7 µM | TGI (SK-OV-3 ovarian): 32.8 µM | TGI (SN12C renal): 28.2 µM | TGI (SNB-19 CNS): 31.6 µM | TGI (SNB-75 CNS): 26.5 µM | TGI (SR leukemia): > 31.8 µM | TGI (SW-620 colon): 3.96 µM | TGI (T-47D breast): 15.3 µM | TGI (TK-10 renal): 30.1 µM | TGI (U251 CNS): 33.7 µM | TGI (UACC-257 melanoma): 28.9 µM | TGI (UACC-62 melanoma): 28.7 µM | TGI (UO-31 renal): 10.8 µM
